In patent US9233978B2, “6-fused heteroaryldihydropyrimidines for the treatment and prophylaxis of hepatitis B virus infection” (Hoffmann-La Roche Inc., priority 2014, dated 2016):
In brackets after ≈: the same amount, converted by molar mass.

How the values were obtained:
Lysa solubility = format: physicochemical; details: 0.05 M phosphate buffer (pH 6.5); for solubility thermodynamic: phosphate buffer, pH 6.5, aqueous buffer, thermodynamic from solid
Procedure: Samples were prepared in duplicate from 10 mM DMSO stock solutions. After evaporation of DMSO with a centrifugal vacuum evaporator, the residue was solved in 0.05 M phosphate buffer (pH 6.5), stirred for one hour and shook for two hours. After one night, the solution was filtered using a microtiter filter plate. Then the filtrate and its 1/10 dilution were analyzed by direct UV measurement or by HPLC-UV. […] The results were in μg/mL. In case the percentage of sample measured in solution after evaporation divided by the calculated maximum of sample amount was over 80%, the solubility was reported as higher than this value.

HBV = assay: Anti-HBV activity in vitro, HepG2.2.15 cells, extracellular HBV DNA by qPCR; format: cell-based; details: Hepatitis B virus, HepG2.2.15, 120 h, HepG2.2.15 cells; HBV replication inhibited by 50%, extracellular HBV DNA by qPCR; five days after compound treatment; read-out: EC50
From the text: HepG2.2.15 and HepDE19 are stably-transfected cell lines containing the HBV genome. Both cell lines are derived from the hepatoblastoma cell line Hep G2 (American Type Culture Collection, ATCC® HB-8065™) by the published procedures described in references: MA Selles et al. Proc. Natl. Acad. Sci. USA 1987, 84, 1005-1009 and H Guo et al. Journal of Virology 2007, 81, 12472-12484, respectively. Both cell lines were maintained in Dulbecco's modified Eagle's medium (DMEM)-F12 medium supplemented with 10% fetal bovine serum, 100 U/mL penicillin, 100 μg/mL streptomycin, and 0.5 mg/mL of G418.
While HepG2.2.15 cells constitutively support HBV replication and production of virus particles, HepDE19 cells are inducible by tetracycline. Addition of 1 μg/mL tetracycline in culture medium suppresses HBV replication in HepDE19 cells, whereas switching to tetracycline-free medium resumes this process.
HepG2.2.15 cells were seeded into 96-well plates (3×10^4 cells in 100 μL media per well) and incubated overnight at 37° C. The test compounds were serially half-log diluted in DMSO, then diluted 100 times in culture media. 100 μL of diluted compounds were added into the plates to reach 0.5% final concentration of DMSO in every well. Five days after compound treatment, culture supernatant was collected for further analysis.
For quantitative PCR detection of extracellular HBV DNA, 100 μL of culture supernatant was collected and processed in MagNA Pure 96 Nucleic Acid Purification System (Roche Applied Science) for viral DNA extraction. The extracted samples were subjected to HBV DNA quantification by qPCR.

[1] = Human microsomal metabolic stability; format: in vitro ADME; details: human microsomes 0.5 mg/mL, 1 μM test compound, NADPH, 37° C., pH 7.4, 0-30 minutes
Procedure: Human Microsomes (BD Gentest) were preincubated with test compound for 10 minutes at 37° C. in 100 mM phosphate buffer, pH 7.4. The reactions were initiated by adding NADPH or NADPH regenerating system to give a final incubation volume of 400 μL. For NADPH system, the final incubations contained 1 μM test compound, 0.5 mg/mL liver microsomal protein, 1 mM NADPH in 100 mM phosphate buffer, pH 7.4. For the NADPH regenerating system, the final incubations contained 1 μM test compound, 0.5 mg/mL liver microsomal protein, 3 mM glucose 6-phosphate, 1 mM NADP, 3 mM MgCl2 and 0.05 mg/mL glucose 6-phosphate dehydrogenase in 100 mM phosphate buffer, pH 7.4. After incubation times of 0, 3, 6, 9, 15 and 30 minutes at 37° C., 1 sample was obtained from each time point and 50 μL of each sample was removed and transferred to 150 μL of methanol solution which was maintained at 4° C. and contained 2 μM tolbutamide as internal standard. Following precipitation and centrifugation, the amount of compound remaining in the samples were determined by LC-MS/MS. Controls of no NADPH or no NADPH regenerating system at zero and 30 minutes were also prepared and analyzed.

SMILES	solubility thermodynamic (Lysa solubility) [µg/mL]	EC50 (HBV) [nM]	Lysa (Lysa solubility) [µg/mL]	Human Microsomal Clearance [1] [mL/min/kg]
CCC(CN1C[C@@H]2CN(CC3=C(C(=O)OC)[C@H](c4ccc(F)cc4Cl)N=C(c4nccs4)N3)CCN2C1=O)C(=O)O (stereo partly drawn) [Example 75, 2-[[(8aS)-7-[[(4R)-4-(2-chloro-4-fluoro-phenyl)-5-methoxycarbonyl-2-thiazol-2-yl-1,4-dihydropyrimidin-6-yl]methyl]-3-oxo-5,6,8,8a-tetrahydro-1H-imidazo[1,5-a]pyrazin-2-yl]methyl]butanoic acid]	> 774	24	–	–
CCOC(=O)C1=C(CN2CCN3C(=O)N([C@@H]4CCCC4C(=O)O)C[C@@H]3C2)NC(c2nccs2)=N[C@H]1c1cccc(F)c1Cl (stereo in doubt) [Example 49, (1S,2R)-2-[(8aS)-7-[[(4R)-4-(2-chloro-3-fluoro-phenyl)-5-ethoxycarbonyl-2-thiazol-2-yl-1,4-dihydropyrimidin-6-yl]methyl]-3-oxo-5,6,8,8a-tetrahydro-1H-imidazo[1,5-a]pyrazin-2-yl]cyclopentanecarboxylic acid]	312 (≈ 494 µM)	8	–	–
CCOC(=O)C1=C(CN2CCN3C(=O)N(C(C)C)C[C@H]3[C@@H]2C(=O)O)NC(c2nccs2)=N[C@H]1c1cccc(F)c1Cl (single isomer, unassigned) [Example 84A]	–	45	570	–
CCOC(=O)C1=C(CN2CCN3C(=O)N(CCC(=O)O)C[C@@H]3C2)NC(c2nccs2)=N[C@H]1c1cccc(F)c1Cl [Example 56, (R)-6-[(S)-2-(2-Carboxy-ethyl)-3-oxo-hexahydro-imidazo[1,5-a]pyrazin-7-ylmethyl]-4-(2-chloro-3-fluoro-phenyl)-2-thiazol-2-yl-1,4-dihydro-pyrimidine-5-carboxylic acid ethyl ester]	> 740	26	–	–
COC(=O)C1=C(CN2CCN3C(=O)N(C4CC4)C[C@H]3[C@@H]2C(=O)O)NC(c2nccs2)=N[C@H]1c1ccc(F)c(F)c1C (single isomer, unassigned) [Example 83A]	–	–	> 740	–
COC(=O)C1=C(CN2CCN3C(=O)N(C4(CC(=O)O)CC4)C[C@H]3C2)NC(c2nccs2)=N[C@H]1c1ccc(F)cc1Cl [Example 46, 2-[1-[(8aR)-7-[[(4R)-4-(2-chloro-4-fluoro-phenyl)-5-methoxycarbonyl-2-thiazol-2-yl-1,4-dihydropyrimidin-6-yl]methyl]-3-oxo-5,6,8,8a-tetrahydro-1H-imidazo[1,5-a]pyrazin-2-yl]cyclopropyl]acetic acid]	> 744	26	–	–
COC(=O)C1=C(CN2CCN3C(=O)N(c4cccc(C(=O)O)c4)C[C@@H]3C2)NC(c2nccs2)=N[C@H]1c1ccc(F)cc1Cl [Example 29, (R)-6-[(S)-2-(3-Carboxy-phenyl)-3-oxo-hexahydro-imidazo[1,5-a]pyrazin-7-ylmethyl]-4-(2-chloro-4-fluoro-phenyl)-2-thiazol-2-yl-1,4-dihydro-pyrimidine-5-carboxylic acid methyl ester]	–	7	–	0.3
COC(=O)C1=C(CN2CCN3C(=O)N(C(C)(C)C)C[C@H]3[C@@H]2C(=O)O)NC(c2nccs2)=N[C@H]1c1ccc(F)c(F)c1C (single isomer, unassigned) [Example 88A]	–	677	–	–
COC(=O)C1=C(CN2CCN3C(=O)COCC3C2)NC(c2nccs2)=N[C@H]1c1ccc(F)cc1Cl (stereo partly drawn) [Example 2, Methyl (4R)-4-(2-chloro-4-fluoro-phenyl)-6-[(4-oxo-6,7,9,9a-tetrahydro-1H-pyrazino[2,1-c][1,4]oxazin-8-yl)methyl]-2-thiazol-2-yl-1,4-dihydropyrimidine-5-carboxylate]	–	54	–	–
CCOC(=O)C1=C(CN2CCN3C(=O)N(C(C)C)C[C@H]3C2)NC(c2nccs2)=N[C@H]1c1cccc(F)c1Cl (single isomer, unassigned) [Example 104A]	–	131	–	–
CCOC(=O)C1=C(CN2CCN3C(=O)NC[C@H]3C2)NC(c2nccs2)=N[C@H]1c1ccc(F)cc1Br [Example 13, Ethyl (4R)-6-[[(8aS)-3-oxo-1,2,5,6,8,8a-hexahydroimidazo[1,5-a]pyrazin-7-yl]methyl]-4-(2-bromo-4-fluoro-phenyl)-2-thiazol-2-yl-1,4-dihydropyrimidine-5-carboxylate]	–	66	–	–
CCOC(=O)C1=C(CN2CCN3C(=O)CCCC3C2)NC(c2nccs2)=N[C@H]1c1cccc(F)c1Cl (stereo partly drawn) [Example 10, Ethyl (4R)-4-(2-chloro-3-fluoro-phenyl)-6-[(6-oxo-3,4,7,8,9,9a-hexahydro-1H-pyrido[1,2-a]pyrazin-2-yl)methyl]-2-thiazol-2-yl-1,4-dihydropyrimidine-5-carboxylate]	–	57	–	–
CCOC(=O)C1=C(CN2CCN3C(=O)CC[C@@H]3C2)NC(c2nccs2)=N[C@H]1c1ccc(F)c(F)c1 [Example 9, Ethyl (4 S)-6-[[(8aR)-6-oxo-1,3,4,7,8,8a-hexahydropyrrolo[1,2-a]pyrazin-2-yl]methyl]-4-(3,4-difluorophenyl)-2-thiazol-2-yl-1,4-dihydropyrimidine-5-carboxylate]	–	64	–	–
COC(=O)C1=C(CN2CCN3C(=O)N(C4(CC(=O)O)CC4)CC3C2)NC(c2nccs2)=N[C@H]1c1ccc(F)cc1Cl (stereo in doubt) [Example 47, 2-[1-[(8aR)-7-[[(4R)-4-(2-chloro-4-fluoro-phenyl)-5-methoxycarbonyl-2-thiazol-2-yl-1,4-dihydropyrimidin-6-yl]methyl]-3-oxo-5,6,8,8a-tetrahydro-1H-imidazo[1,5-a]pyrazin-2-yl]cyclopropyl]acetic acid]	> 767	51	–	–
COC(=O)C1=C(CN2CCN3C(=O)CC[C@@H]3C2)NC(c2nccs2)=N[C@H]1c1ccc(F)cc1Br [Example 7, Methyl (4R)-6-[[(8aR)-6-oxo-1,3,4,7,8,8a-hexahydropyrrolo[1,2-a]pyrazin-2-yl]methyl]-4-(2-bromo-4-fluoro-phenyl)-2-thiazol-2-yl-1,4-dihydropyrimidine-5-carboxylate]	–	14	–	–
CCOC(=O)C1=C(CN2CCN3C(=O)N(C(C)(C)C)C[C@@H]3[C@H]2CO)NC(c2nccs2)=N[C@H]1c1cccc(F)c1Cl (single isomer, unassigned) [Example 103B]	–	10	–	–
CCOC(=O)C1=C(CN2CCN3C(=O)N([C@H](C)CC(=O)O)C[C@@H]3C2)NC(c2nccs2)=N[C@H]1c1cccc(F)c1Cl [Example 57, (R)-6-[(S)-2-((R)-2-Carboxy-1-methyl-ethyl)-3-oxo-hexahydro-imidazo[1,5-a]pyrazin-7-ylmethyl]-4-(2-chloro-3-fluoro-phenyl)-2-thiazol-2-yl-1,4-dihydro-pyrimidine-5-carboxylic acid ethyl ester]	–	32	–	–
COC(=O)C1=C(CN2CCN3C(=O)OCCC3C2)NC(c2nccs2)=N[C@H]1c1ccc(F)cc1Cl (stereo partly drawn) [Example 1, Methyl (4R)-4-(2-chloro-4-fluoro-phenyl)-6-[(6-oxo-1,3,4,8,9,9a-hexahydropyrazino[1,2-c][1,3]oxazin-2-yl)methyl]-2-thiazol-2-yl-1,4-dihydropyrimidine-5-carboxylate]	–	104	–	–
COC(=O)C1=C(CN2CCN3C(=O)N(c4ccc(C(=O)O)nc4)CC3C2)NC(c2nccs2)=N[C@H]1c1ccc(F)cc1Cl (mixture of isomers) [Example 95, 5-[7-[[(4R)-4-(2-chloro-4-fluoro-phenyl)-5-methoxycarbonyl-2-thiazol-2-yl-1,4-dihydropyrimidin-6-yl]methyl]-3-oxo-5,6,8,8a-tetrahydro-1H-imidazo[1,5-a]pyrazin-2-yl]pyridine-2-carboxylic acid]	307 (≈ 490 µM)	11	–	–
